Structures can show the parent of a compound that is named as a salt.
Key:
[1] = molecular target: T1, human dopamine D2S receptors (Homo sapiens, UniProt P14416); assay: Binding affinity test on human dopamine D2S receptors ([3H]spiperone, CHO membranes); conditions: for Ki: Dopamine D2S; for binding affinity (in words): human dopamine D2S receptors
T1 construct: expressed in transfected cells; host or cells: CHO
Protocol: For the test, membrane specimens prepared from Chinese hamster ovary (CHO) cells expressing human dopamine D2S receptors were used. To a 50 mM Tris-HCl (pH 7.4) buffer containing 1.4 mM ascorbic acid, 0.001% BSA, and 150 mM NaCl, [^3H] spiperone (final concentration 0.16 nM), the test sample solution and a membrane specimen were added. The reaction solution was allowed to react at 25° C. for 2 hours, then the reaction solution was filtered with a cell harvester, the filtered filter paper was transferred to a measurement vial, a liquid scintillator was added, and the receptor bond radioactivity remaining on the filter paper was determined with a liquid scintillation counter. The nonspecific bonds were defined as the amount of bonds in the presence of 10 μM haloperidol.
The following formula was used to calculate the binding inhibition rate: […]
From the binding inhibition rate, a regression formula was used to calculate the 50% inhibition concentration. Furthermore, the inhibition constant (Ki) was calculated.

[2] = test system: Parkinson's disease patients; assay: Clinical test of efficacy, safety and tolerability in patients with motor complications associated with Parkinson's disease; type: in vivo, human
From the text: The efficacy of SUN N4057 on motor complications accompanying levodopa therapy in Parkinson's disease patients was studied in randomized, double-blind, placebo-controlled, multicenter, international, preliminary study. The patients aged 40 to 85 years, having idiopathic Parkinson's disease fulfilling the United Kingdom Parkinson's Disease Society (UK PDS) brain bank diagnostic criteria, having a presumed or confirmed diagnosis of Parkinson's disease in Stages 2 to 4 on the Hoehn & Yahr classification scale when in an “off” state, having a diagnosis of Parkinson's disease for at least 5 years, and being on a stable regimen of levodopa (L-dopa)/carbidopa for 30 days prior to the administration of the tested drug were enrolled into the study.
After providing their informed consent, the subjects were screened in 9 to 22 days before scheduled date of start of administration. During the screening phase, the patients continued to take their usual regimen of antiparkinsonian drugs including combinations of levodopa and carbidopa or combined use of single drugs.
At the baseline (8±2 days before scheduled date of start of administration), the subjects returned to the clinic for a baseline assessment of motor fluctuations over an 8-hour period. They received the first morning dose of the patient's usual anti-Parkinson's disease drugs (including combination of levodopa and carbidopa or combined use of single drugs), and the 8 hour evaluation began approximately 1 hour after taking the initial treatment. Each hour for 8 hours, the patient were assessed and it was recorded whether the patient was in the “on” (without dyskinesia), “on with dyskinesia,” or “off” motor states. The Unified Parkinson's Disease Rating Scale (UPDRS) Part III and the Abnormal Involuntary Movement Scale AIMS were also completed each hour over the 8-hour observation period.
The subjects judged eligible after the screening and baseline evaluation were randomly assigned in a 3:1 ratio (3 active:1 placebo) to receive SUN N4057 or matching placebo. The subjects received continuous intravenous infusion of SUN N4057 (target plasma concentration of 30 ng/mL) or a placebo for 12 hours a day for 2 consecutive days. The dose regimen was selected to reach the target plasma concentration 1 hour after the start of administration and to be maintained for 11 hours. The mean dosage of SUN N4057 for the patients was 13.123 mg on day 1 and 9.550 mg on day 2.
On day 1, motor assessments (recording of “on” or “off” periods), the Unified Parkinson's Disease Rating Scale (UPDRS) Part III, and the Abnormal Involuntary Movement Scale (AIMS) were conducted immediately prior to dosing with regular antiparkinsonian medications. After the first morning dose of the regular antiparkinsonian medication was administered, intravenous infusion of SUN N4057 or placebo was started. For 8 hours from the start of infusion, motor assessments, including the UPDRS Part III, AIMS, and recording of “on” and “off” periods were to be completed hourly.

[3] = Concentration in plasma after sustained subcutaneous administration (osmotic pump); type: in vivo; conditions: rat, sc, after the end of the behavioral experiments
Protocol: Therefore, the inventors prepared Parkinson's disease model rats in the same way as in Example 4 and treated the rats by repeated doses of levodopa (twice a day, Monday to Friday) for 7 weeks. The presence or absence of the rotational behavior of each rat was recorded at approximately 1 hour after the administration of levodopa during the repeated dosing period. […] Therefore, from weeks 1 to 5 of repeated doses of levodopa, the inventors recorded the presence of any rotational behavior of the rats each time, then studied the effects of the tested substances from week 6 of repeated doses of levodopa by implanting an Aizet® osmotic pump filled with SUN N4057 or physiological saline (2ML4, volume 2 ml, flow rate 2.5 μl/hr) subcutaneously at the rats. In the 2 weeks after that, the inventors similarly continued to record the presence of any rotational behavior of the rats 1 hour after levodopa administration.
Note that the measured values of the concentration of SUN N4057 in the plasma of each group measured after the end of the behavioral experiments were 5.3±0.7 ng/mL in the SUN N4057 low dosage sustained subcutaneous administration group and 14.3±2.9 ng/mL in the high dosage sustained subcutaneous administration group.

[4] = After administration (day 2), i.v. infusion 12 hours a day, n = 18

T1 sequence (P14416 1-414 isoform P14416-2): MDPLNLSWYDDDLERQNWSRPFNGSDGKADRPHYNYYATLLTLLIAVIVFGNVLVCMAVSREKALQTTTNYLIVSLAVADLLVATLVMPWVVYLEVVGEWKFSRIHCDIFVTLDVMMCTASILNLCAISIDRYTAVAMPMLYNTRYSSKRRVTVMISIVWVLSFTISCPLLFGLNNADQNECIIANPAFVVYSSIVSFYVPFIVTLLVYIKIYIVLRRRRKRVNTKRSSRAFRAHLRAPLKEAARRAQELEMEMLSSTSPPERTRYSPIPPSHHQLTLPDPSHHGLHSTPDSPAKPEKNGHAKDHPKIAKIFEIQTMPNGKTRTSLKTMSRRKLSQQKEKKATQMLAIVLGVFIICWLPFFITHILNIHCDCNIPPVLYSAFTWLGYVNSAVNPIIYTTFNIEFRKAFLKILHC

Ki [1] [nM] | binding affinity (in words) [1] | Structure (SMILES) | Percentage of off time [2, 4] [%] | Percentage of on time with dyskinesia [2, 4] [%] | Percentage of on time without dyskinesia [2, 4] [%] | serious adverse events or deaths ([2]; clinical study) | decrease of the percentage of off time in the comparison with baseline ([2]; day 2 (9.7-20.8)) [points] | increase of the percentage of on time without dyskinesia in the comparison with baseline ([2]; day 2 (41.0-18.8)) [points] | percentage of responder (dyskinesia by AIMS improved in severity or suppressed to zero without prolongation of off time) ([2]; day 2, placebo 0%, p=0.02) [%] | UPDRS Part 3 decline in comparison with the baseline ([2]; day 2 of administration, placebo 0.9) [point] | concentration at 2 weeks ([3]; high dosage sustained subcutaneous administration group) [ng/mL] | concentration at 2 weeks ([3]; low dosage sustained subcutaneous administration group) [ng/mL]
6.34 | comparatively strong binding affinity | Cl.Cl.O=c1[nH]c2cccc(C3CCCN(Cc4cncc(-c5ccc(F)cc5)c4)C3)c2o1 (stereo not drawn) [7-(1-{[5-(4-fluorophenyl)pyridin-3-yl]methyl}piperidin-3-yl)-1,3-benzoxazol-2(3H)-one dihydrochloride] |  |  |  |  |  |  |  |  |  | 
2.56 | comparatively strong binding affinity | Cl.Cl.Fc1ccc(-c2cncc(CNC[C@H]3CCc4ccccc4O3)c2)cc1 [Sarizotan, 1-[(2R)-3,4-dihydro-2H-chromen-2-yl]-N-{[5-(4-fluorophenyl)pyridin-3-yl]methyl}methanamine dihydrochloride] |  |  |  |  |  |  |  |  |  | 

Structure (SMILES) | Ki [1] [nM] | binding affinity (in words) [1] | Percentage of off time [2, 4] [%] | Percentage of on time with dyskinesia [2, 4] [%] | Percentage of on time without dyskinesia [2, 4] [%] | serious adverse events or deaths ([2]; clinical study) | decrease of the percentage of off time in the comparison with baseline ([2]; day 2 (9.7-20.8)) [points] | increase of the percentage of on time without dyskinesia in the comparison with baseline ([2]; day 2 (41.0-18.8)) [points] | percentage of responder (dyskinesia by AIMS improved in severity or suppressed to zero without prolongation of off time) ([2]; day 2, placebo 0%, p=0.02) [%] | UPDRS Part 3 decline in comparison with the baseline ([2]; day 2 of administration, placebo 0.9) [point] | concentration at 2 weeks ([3]; high dosage sustained subcutaneous administration group) [ng/mL] | concentration at 2 weeks ([3]; low dosage sustained subcutaneous administration group) [ng/mL]
O=C1c2ccccc2OC=C(Cl)N1CCCCN1CC=C(c2ccccn2)CC1 [SUN N4057, 3-chloro-4,5-dihydro-4-{4-[4-(2-pyridyl)-1,2,3,6-tetrahydropyridin-1-yl]butyl}-1,4-benzoxazepin-5-one.dihydrochloride-dihydrate] | 162 |  | 9.7 | 49.3 | 41.0 | no serious adverse events or deaths were reported | 11.1 | 22.2 | 56 | 4.4 | 14.3 ± 2.9 | 5.3 ± 0.7

— US20100204202A1, “DRUG FOR ALLEVIATING MOTOR COMPLICATIONS OR PSYCHIATRIC SYMPTOMS OF PARKINSON'S DISEASE” (Asubio Pharma Co., Ltd., priority 2007, published 2010)
